US10807988B2, “3-((hetero-)aryl)-8-amino-2-oxo-1,3-diaza-spiro-[4.5]-decane derivatives” (Grünenthal GmbH, priority 2016, dated 2020)

How the values were obtained:
[1] = target: human nociceptin/orphanin FQ peptide (hNOP) receptor (Homo sapiens (Human), UniProt P41146); format: binding
[2] = target: human mu-opioid peptide (hMOP) receptor (Homo sapiens (Human), UniProt P35372); assay: Human mu-opioid peptide (hMOP) receptor binding assay (SPA, [3H]naloxone displacement)
Chain of human mu-opioid peptide (hMOP) receptor (P35372 whole entry): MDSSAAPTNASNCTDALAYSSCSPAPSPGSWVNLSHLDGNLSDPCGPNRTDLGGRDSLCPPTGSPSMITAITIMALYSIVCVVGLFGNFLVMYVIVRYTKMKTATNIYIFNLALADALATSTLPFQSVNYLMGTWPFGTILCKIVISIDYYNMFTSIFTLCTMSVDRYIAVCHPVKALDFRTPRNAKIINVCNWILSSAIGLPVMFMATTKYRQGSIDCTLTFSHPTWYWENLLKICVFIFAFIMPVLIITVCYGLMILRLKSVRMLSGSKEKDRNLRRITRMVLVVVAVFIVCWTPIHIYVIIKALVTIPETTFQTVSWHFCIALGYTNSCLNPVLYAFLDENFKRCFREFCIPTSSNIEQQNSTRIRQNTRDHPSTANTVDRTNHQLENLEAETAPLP

SMILES	hNOP % inhibition at 1 μM [1] [%]	further results
CN1CCN(c2ncc(N3CC4(CCC(c5ccccc5)(N(C)CC5CCOC5)CC4)NC3=O)cn2)CC1 (single isomer, unassigned; enantiomer 1) [SC_3324, cis-3-[2-(4-Methyl-piperazin-1-yl)-pyrimidin-5-yl]-8-[methyl-(tetrahydro-furan-3-yl-methyl)-amino]-8-phenyl-1,3-diazaspiro[4.5]decan-2-one (enantiomer 1)]	12	
CN1CCN(c2ncc(N3CC4(CCC(c5ccccc5)(N(C)CC5CCOC5)CC4)NC3=O)cn2)CC1 (single isomer, unassigned; enantiomer 2) [SC_3325, cis-3-[2-(4-Methyl-piperazin-1-yl)-pyrimidin-5-yl]-8-[methyl-(tetrahydro-furan-3-yl-methyl)-amino]-8-phenyl-1,3-diazaspiro[4.5]decan-2-one (enantiomer 2)]		hNOP % inhibition at 10 μM [1]: 53%@10 μM
CN(C)[C@]1(c2ccccc2)CC[C@]2(CC1)CN(c1cnc(C#N)nc1)C(=O)N2CCO [SC_3025, cis-5-[8-Dimethylamino-1-(2-hydroxy-ethyl)-2-oxo-8-phenyl-1,3-diazaspiro[4.5]decan-3-yl]-pyrimidine-2-carbonitrile]		Ki [2]: 1530 nM
CNC1(c2ccccc2)CCC2(CC1)CN(c1ccccc1C(N)=O)C(=O)N2 (stereo not drawn) [SC_3119, cis-2-(8-Methylamino-2-oxo-8-phenyl-1,3-diazaspiro[4.5]decan-3-yl)-benzamide]	22	hMOP % inhibition at 1 μM [2]: 10%
CCNC1(c2ccccc2)CCC2(CC1)CN(c1ccccc1C(N)=O)C(=O)N2 (stereo not drawn) [SC_3125, trans-2-(8-Ethylamino-2-oxo-8-phenyl-1,3-diazaspiro[4.5]decan-3-yl)-benzamide]		hNOP % inhibition at 10 μM [1]: 3%@10 μM
CCNC1(c2ccccc2)CCC2(CC1)CN(c1ccccc1C(N)=O)C(=O)N2 (stereo not drawn) [SC_3126, cis--2-(8-Ethylamino-2-oxo-8-phenyl-1,3-diazaspiro[4.5]decan-3-yl)-benzamide]	0	
CCN[C@]1(c2ccccc2)CC[C@@]2(CC1)CN(c1ccccc1C#N)C(=O)N2 [SC_3127, cis-2-(8-Ethylamino-2-oxo-8-phenyl-1,3-diazaspiro[4.5]decan-3-yl)-benzonitrile]	0	
CCN[C@]1(c2ccccc2)CC[C@]2(CC1)CN(c1ccccc1C#N)C(=O)N2 [SC_3128, cis-2-(8-Ethylamino-2-oxo-8-phenyl-1,3-diazaspiro[4.5]decan-3-yl)-benzonitrile]	0	
CCNC1(c2ccccc2)CCC2(CC1)CN(c1ccc(C#N)cc1OC)C(=O)N2 (stereo not drawn) [SC_3134, trans-4-(8-Ethylamino-2-oxo-8-phenyl-1,3-diazaspiro[4.5]decan-3-yl)-3-methoxy-benzonitrile]		hNOP % inhibition at 10 μM [1]: 3%@10 μM
CCNC1(c2ccccc2)CCC2(CC1)CN(c1ccc(C#N)cc1OC)C(=O)N2 (stereo not drawn) [SC_3135, cis-4-(8-Ethylamino-2-oxo-8-phenyl-1,3-diazaspiro[4.5]decan-3-yl)-3-methoxy-benzonitrile]	1	
CCN[C@]1(c2ccccc2)CC[C@]2(CC1)CN(c1cnc(C#N)nc1OC)C(=O)N2 [SC_3143, cis-5-(8-Ethylamino-2-oxo-8-phenyl-1,3-diazaspiro[4.5]decan-3-yl)-4-methoxy-pyrimidine-2-carbonitrile]	0	
CCN[C@]1(c2ccccc2)CC[C@@]2(CC1)CN(c1cnc(C#N)nc1OC)C(=O)N2 [SC_3144, trans-5-(8-Ethylamino-2-oxo-8-phenyl-1,3-diazaspiro[4.5]decan-3-yl)-4-methoxy-pyrimidine-2-carbonitrile]	0	
CN(C)[C@]1(Cc2ccccc2)CC[C@@]2(CC1)CN(c1cnc(N3CCOCC3)nc1)C(=O)N2 [SC_3160, trans-8-Benzyl-8-dimethylamino-3-(2-morpholin-4-yl-pyrimidin-5-yl)-1,3-diazaspiro[4.5]decan-2-one]	4	
CN(C)C1(Cc2ccccc2)CCC2(CC1)CN(c1cnc(N3CCOCC3)nc1)C(=O)N2 (stereo not drawn) [SC_3161, cis-8-Benzyl-8-dimethylamino-3-(2-morpholin-4-yl-pyrimidin-5-yl)-1,3-diazaspiro[4.5]decan-2-one]	2	
CN(C)C1(Cc2ccccc2)CCC2(CC1)CN(c1cnc(C(F)(F)F)nc1)C(=O)N2 (stereo not drawn) [SC_3165, cis-8-Benzyl-8-dimethylamino-3-[2-(trifluoromethyl)-pyrimidin-5-yl]-1,3-diazaspiro[4.5]decan-2-one]	4	
CN(C)[C@]1(Cc2ccccc2)CC[C@@]2(CC1)CN(c1cnc(C(F)(F)F)nc1)C(=O)N2 [SC_3166, trans-8-Benzyl-8-dimethylamino-3-[2-(trifluoromethyl)-pyrimidin-5-yl]-1,3-diazaspiro[4.5]decan-2-one]	3	
Cc1cc(C(F)(F)F)ncc1N1C[C@]2(CC[C@@](Cc3ccccc3)(N(C)C)CC2)NC1=O [SC_3174, trans-8-Benzyl-8-dimethylamino-3-[4-methyl-6-(trifluoromethyl)-pyridin-3-yl]-1,3-diazaspiro[4.5]decan-2-one]	3	
Cc1cc(C(F)(F)F)ncc1N1CC2(CCC(Cc3ccccc3)(N(C)C)CC2)NC1=O (stereo not drawn) [SC_3215, cis-8-Benzyl-8-dimethylamino-3-[4-methyl-6-(trifluoromethyl)-pyridin-3-yl]-1,3-diazaspiro[4.5]decan-2-one]	0	
CN(C)C1(c2nc3ccccc3n2C)CCC2(CC1)CN(c1cnc(C(F)(F)F)nc1)C(=O)N2 (stereo not drawn) [SC_3219, cis-8-Dimethylamino-8-(1-methyl-1H-benzoimidazol-2-yl)-3-[2-(trifluoromethyl)-pyrimidin-5-yl]-1,3-diazaspiro[4.5]decan-2-one]	0	hMOP % inhibition at 1 μM [2]: 1%
CN(CC1CCOC1)[C@]1(c2ccccc2)CC[C@]2(CC1)CN(c1cnc(N3CCOCC3)nc1)C(=O)N2 (stereo partly drawn) [SC_3304, cis-8-[Methyl-(tetrahydro-furan-3-yl-methyl)-amino]-3-(2-morpholin-4-yl-pyrimidin-5-yl)-8-phenyl-1,3-diazaspiro[4.5]decan-2-one]	9	hMOP % inhibition at 1 μM [2]: 4%
CN(CC1CCOC1)[C@]1(c2ccccc2)CC[C@]2(CC1)CN(c1cnc(N3CCOCC3)nc1)C(=O)N2 (stereo partly drawn) [SC_3305, cis-8-[Methyl-(tetrahydro-furan-3-yl-methyl)-amino]-3-(2-morpholin-4-yl-pyrimidin-5-yl)-8-phenyl-1,3-diazaspiro[4.5]decan-2-one]	10	hMOP % inhibition at 1 μM [2]: 0%
